Experimental data: paper PMC9027111, “Morphing Natural Product Platensimycin via Heck, Sonogashira, and One-Pot Sonogashira/Cycloaddition Reactions to Produce Antibiotics with In Vivo Activity” (Antibiotics, 2022)
≈ marks a conversion by molar mass, not a printed value.

Columns and labels:
Format in all cases: cell-based
MSSA 2 = assay: MIC determination (LB agar dilution), clinical MSSA strain 2; conditions: Staphylococcus aureus, at least two replicates
Protocol: (§1) All of the tested compounds were prepared to different concentrations with methanol, and 150 μL of the respective methanol solution was used to mix with 15 mL LB (Luria–Bertani) medium with 1% agar in each Petri dish. Linezolid and PTM were used as reference compounds for comparison. In vitro bioassay for compounds was carried out using clinical strains of S. aureus, E. coli, and Klebsilla pneumoniae. The bacteria were cultivated in LB medium and incubated for 16 h at 37 °C, 250 rpm. The resulting bacteria were diluted to approximate 0.25 at OD600, which were further diluted 10_4-fold. The diluted bacteria (2 μL) were added to Petri dish containing the respective compounds. The resulting Petri dishes were incubated for 16 h at 37 °C. The determination of MIC is the concentration of Petri dishes with no visible growth of bacteria.

MSSA 1 = assay: MIC determination (LB agar dilution), clinical MSSA strain 1; conditions: Staphylococcus aureus, at least two replicates
Protocol: as §1

MRSA 4 = assay: MIC determination (LB agar dilution), clinical MRSA strain 4; conditions: Staphylococcus aureus, at least two replicates
Protocol: as §1

S. aureus ATCC 29213 = assay: MIC determination (LB agar dilution), S. aureus ATCC 29213; conditions: Staphylococcus aureus, ATCC29213, at least two replicates
Protocol: as §1

MRSA 3 = assay: MIC determination (LB agar dilution), clinical MRSA strain 3; conditions: Staphylococcus aureus, at least two replicates
Protocol: as §1

Row | SMILES | MIC (MSSA 2) [µg/mL] | MIC (MSSA 1) [µg/mL] | MIC (MRSA 4) [µg/mL] | MIC (S. aureus ATCC 29213) [µg/mL] | MIC (MRSA 3) [µg/mL]
1 | CCCCOC(=O)C=CC1=CC23CC4CC(OC4(C)C2)C3C(C)(CCC(=O)Nc2c(O)ccc(C(=O)O)c2O)C1=O (centres unmarked) [A3] | 1 (≈ 1.76 µM) | 1 (≈ 1.76 µM) | 1 (≈ 1.76 µM) | 1 (≈ 1.76 µM) | 1 (≈ 1.76 µM)
2 | CC(C)NC(=O)C=CC1=CC23CC4CC(OC4(C)C2)C3C(C)(CCC(=O)Nc2c(O)ccc(C(=O)O)c2O)C1=O (centres unmarked) [A8] | 32 (≈ 57.9 µM) | 32 (≈ 57.9 µM) | 32 (≈ 57.9 µM) | 32 (≈ 57.9 µM) | 32 (≈ 57.9 µM)
3 | CN(C)C(=O)C=CC1=CC23CC4CC(OC4(C)C2)C3C(C)(CCC(=O)Nc2c(O)ccc(C(=O)O)c2O)C1=O (centres unmarked) [A7] | 16 (≈ 29.7 µM) | 16 (≈ 29.7 µM) | 16 (≈ 29.7 µM) | 16 (≈ 29.7 µM) | 16 (≈ 29.7 µM)
4 | CC12CC34C=C(C=CC(=O)OCCO)C(=O)C(C)(CCC(=O)Nc5c(O)ccc(C(=O)O)c5O)C3C(CC1C4)O2 (centres unmarked) [A2] | 16 (≈ 28.8 µM) | 16 (≈ 28.8 µM) | 16 (≈ 28.8 µM) | 16 (≈ 28.8 µM) | 16 (≈ 28.8 µM)
5 | CC12CC34C=C(C=CC(N)=O)C(=O)C(C)(CCC(=O)Nc5c(O)ccc(C(=O)O)c5O)C3C(CC1C4)O2 (centres unmarked) [A6] | 64 (≈ 125 µM) | 64 (≈ 125 µM) | 64 (≈ 125 µM) | 64 (≈ 125 µM) | 64 (≈ 125 µM)
6 | COC(=O)C=CC1=CC23CC4CC(OC4(C)C2)C3C(C)(CCC(=O)Nc2c(O)ccc(C(=O)O)c2O)C1=O (centres unmarked) [A1] | 2 (≈ 3.81 µM) | 2 (≈ 3.81 µM) | 2 (≈ 3.81 µM) | 2 (≈ 3.81 µM) | 2 (≈ 3.81 µM)
7 | CC(C)(C)NC(=O)C=CC1=CC23CC4CC(OC4(C)C2)C3C(C)(CCC(=O)Nc2c(O)ccc(C(=O)O)c2O)C1=O (centres unmarked) [A9] | 8 (≈ 14.1 µM) | 8 (≈ 14.1 µM) | 8 (≈ 14.1 µM) | 8 (≈ 14.1 µM) | 8 (≈ 14.1 µM)

Results, then the molecule that gave them:

Row | MIC (MSSA 2) [µg/mL] | MIC (MSSA 1) [µg/mL] | MIC (MRSA 4) [µg/mL] | MIC (S. aureus ATCC 29213) [µg/mL] | MIC (MRSA 3) [µg/mL] | SMILES
8 | 4 (≈ 7.1 µM) | 4 (≈ 7.1 µM) | 4 (≈ 7.1 µM) | 4 (≈ 7.1 µM) | 4 (≈ 7.1 µM) | CC12CC34C=C(C#CC5(O)CCCCC5)C(=O)C(C)(CCC(=O)Nc5c(O)ccc(C(=O)O)c5O)C3C(CC1C4)O2 (centres unmarked) [B6]
9 | 1 (≈ 1.79 µM) | 1 (≈ 1.79 µM) | 1 (≈ 1.79 µM) | 1 (≈ 1.79 µM) | 1 (≈ 1.79 µM) | CC12CC34C=C(C#Cc5ccc(F)cc5)C(=O)C(C)(CCC(=O)Nc5c(O)ccc(C(=O)O)c5O)C3C(CC1C4)O2 (centres unmarked) [B14]
10 | 1 (≈ 1.92 µM) | 1 (≈ 1.92 µM) | 1 (≈ 1.92 µM) | 1 (≈ 1.92 µM) | 1 (≈ 1.92 µM) | CCCCC#CC1=CC23CC4CC(OC4(C)C2)C3C(C)(CCC(=O)Nc2c(O)ccc(C(=O)O)c2O)C1=O (centres unmarked) [B2]
11 | 1 (≈ 1.92 µM) | 1 (≈ 1.92 µM) | 1 (≈ 1.92 µM) | 1 (≈ 1.92 µM) | 1 (≈ 1.92 µM) | CC(C)(C)C#CC1=CC23CC4CC(OC4(C)C2)C3C(C)(CCC(=O)Nc2c(O)ccc(C(=O)O)c2O)C1=O (centres unmarked) [B3]
12 | 8 (≈ 13.4 µM) | 8 (≈ 13.4 µM) | 8 (≈ 13.4 µM) | 8 (≈ 13.4 µM) | 8 (≈ 13.4 µM) | CCCCc1ccc(C#CC2=CC34CC5CC(OC5(C)C3)C4C(C)(CCC(=O)Nc3c(O)ccc(C(=O)O)c3O)C2=O)cc1 (centres unmarked) [B12]
13 | 32 (≈ 45.9 µM) | 32 (≈ 45.9 µM) | 32 (≈ 45.9 µM) | 32 (≈ 45.9 µM) | 32 (≈ 45.9 µM) | CCCCc1ccc(CC2=C3C(=O)C(C)(CCC(=O)Nc4c(O)ccc(C(=O)O)c4O)C4C5CC6CC4(CC6(C)O5)C3C(C(C)=O)=C(C)O2)cc1 (centres unmarked) [C4]
14 | 4 (≈ 7.2 µM) | 4 (≈ 7.2 µM) | 4 (≈ 7.2 µM) | 8 (≈ 14.4 µM) | 8 (≈ 14.4 µM) | Cc1ccc(C#CC2=CC34CC5CC(OC5(C)C3)C4C(C)(CCC(=O)Nc3c(O)ccc(C(=O)O)c3O)C2=O)cc1 (centres unmarked) [B10]
15 | 1 (≈ 1.85 µM) | 1 (≈ 1.85 µM) | 1 (≈ 1.85 µM) | 1 (≈ 1.85 µM) | 1 (≈ 1.85 µM) | CC12CC34C=C(C#Cc5ccccc5)C(=O)C(C)(CCC(=O)Nc5c(O)ccc(C(=O)O)c5O)C3C(CC1C4)O2 (centres unmarked) [B7]
16 | 32 (≈ 47.3 µM) | 32 (≈ 47.3 µM) | 32 (≈ 47.3 µM) | 32 (≈ 47.3 µM) | 32 (≈ 47.3 µM) | CC(=O)C1=C(C)OC(Cc2ccc(Cl)cc2)=C2C(=O)C(C)(CCC(=O)Nc3c(O)ccc(C(=O)O)c3O)C3C4CC5CC3(CC5(C)O4)C12 (centres unmarked) [C7]
